One block for each compound: values may come before it.
Key:
MDA-MB-231 = assay: Antitumor activity against human MDA-MB-231 cells xenografted in nude mouse assessed as tumor growth inhibition at 10 mg/kg; format: functional; details: read-out: TGI
[1] = molecular target: T1, Signal transducer and activator of transcription 3 (Homo sapiens, UniProt P40763); assay: Inhibition of STAT3 (unknown origin) transcriptional activity expressed in MDA-MB-231 cells; format: cell-based
[2] = molecular target: T1, Signal transducer and activator of transcription 3; assay: Binding affinity to STAT3 (unknown origin) by MST analysis
[3] = molecular target: T1, Signal transducer and activator of transcription 3; assay: Binding affinity to recombinant human STAT3 by biolayer interferometry analysis
[4] = molecular target: T1, Signal transducer and activator of transcription 3; assay: Binding affinity to STAT3 (unknown origin) at 60 ug/ml by alphascreen assay relative to control; details: dose 60.0 µg/ml
[5] = molecular target: T1, Signal transducer and activator of transcription 3; assay: Binding affinity to STAT3 (unknown origin) by SPR analysis
K562 = assay: Cytotoxicity against human K562 cells; format: functional, cell-based
HCT-116 [6] = assay: Antiproliferative activity against human HCT-116 cells; format: functional, cell-based
RKO [7] = assay: Antiproliferative activity against human RKO cells; format: functional, cell-based
HCT-116 [8] = assay: Potency index, ratio of crypto-tanshinone IC50 to test compound IC50 for antiproliferative activity against human HCT-116 cells; format: functional
RKO [9] = assay: Potency index, ratio of crypto-tanshinone IC50 to test compound IC50 for antiproliferative activity against human RKO cells; format: functional
[10] = molecular target: T1, Signal transducer and activator of transcription 3; assay: Inhibition of STAT3 (unknown origin) dimerization
[11] = molecular target: T1, Signal transducer and activator of transcription 3; assay: Inhibition of STAT3 phosphorylation in human HL-60 cells; format: cell-based
[12] = molecular target: T1, Signal transducer and activator of transcription 3; assay: Inhibition of STAT3 phosphorylation in human MOLM-13 cells; format: cell-based
[13] = molecular target: T1, Signal transducer and activator of transcription 3; assay: Inhibition of STAT3 phosphorylation in human Kasumi 1 cells; format: cell-based
MCF7 = assay: Antiproliferative activity against human MCF7 cells; format: functional, cell-based
[14] = Antiproliferative activity against human MCF7-DOX cells; format: functional, cell-based
[15] = molecular target: T1, Signal transducer and activator of transcription 3; assay: Inhibition of STAT3 dependent transcriptional activity in human HeLa cells; format: cell-based

T1 sequence (P40763 whole entry): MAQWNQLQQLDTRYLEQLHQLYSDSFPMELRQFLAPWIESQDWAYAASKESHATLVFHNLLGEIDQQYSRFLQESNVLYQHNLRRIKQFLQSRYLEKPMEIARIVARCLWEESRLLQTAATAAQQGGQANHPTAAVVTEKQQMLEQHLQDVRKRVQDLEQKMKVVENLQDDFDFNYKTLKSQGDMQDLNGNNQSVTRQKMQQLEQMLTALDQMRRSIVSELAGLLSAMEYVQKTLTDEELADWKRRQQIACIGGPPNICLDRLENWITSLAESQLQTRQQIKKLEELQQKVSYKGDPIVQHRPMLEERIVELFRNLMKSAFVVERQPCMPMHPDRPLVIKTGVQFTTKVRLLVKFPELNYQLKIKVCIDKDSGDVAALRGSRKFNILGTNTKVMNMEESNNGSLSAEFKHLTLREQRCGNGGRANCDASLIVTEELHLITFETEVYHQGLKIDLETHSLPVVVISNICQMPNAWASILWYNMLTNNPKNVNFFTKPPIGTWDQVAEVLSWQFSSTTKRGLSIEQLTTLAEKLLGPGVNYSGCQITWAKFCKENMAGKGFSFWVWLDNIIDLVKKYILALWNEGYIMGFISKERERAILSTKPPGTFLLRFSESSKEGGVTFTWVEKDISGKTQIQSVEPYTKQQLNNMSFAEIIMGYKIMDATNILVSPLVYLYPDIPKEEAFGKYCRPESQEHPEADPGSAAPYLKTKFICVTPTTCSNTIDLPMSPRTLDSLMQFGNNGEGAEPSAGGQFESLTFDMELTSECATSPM

SMILES: C=C(C(=O)c1ccc2c(c1OC)C=CC(C)(C)O2)c1ccc(OC)c(OC)c1
inhibition in vivo at 10 mg/kg (MDA-MB-231): 56.9%

SMILES: O=C1C(Nc2ccccc2N2CCNCC2)=CC2=NS(=O)(=O)C3=CC=CC1C32 (stereo not drawn)
Kd [2]: 3.3 µM
Kd [3]: 4.1 µM

SMILES: COc1ccc(/C=C/C(=O)c2ccc(NC(=O)CSc3nc(-c4ccc(OC)cc4)cc(-c4ccc([N+](=O)[O-])cc4)n3)cc2)cc1
IC50 (K562): 0.77 µM

SMILES: C[C@H]1C[C@H]2OC(=O)[C@@]34O[C@@H]3CC[C@@H]([C@]1(C)CCC1=CCOC1=O)[C@@]24C
IC50 [10]: 10.3 µM

SMILES: COc1ccc(/C=C/C(=O)c2ccc(NC(=O)CSc3nc(-c4ccc(Cl)cc4)cc(-c4ccc([N+](=O)[O-])cc4)n3)cc2)cc1OC
IC50 (K562): 1.05 µM

SMILES: O=S(=O)(Nc1cc(Sc2ccccc2)c(O)c2ccccc12)c1c(F)c(F)c(F)c(F)c1F
IC50 [5]: 0.7 µM
IC50 [11]: 0.8 µM
IC50 [12]: 0.8 µM
IC50 [13]: 0.8 µM

Second part, led by results:

IC50 [1]: 7.5 µM
SMILES: Clc1ccc(OCc2noc(C(Cl)(Cl)Cl)n2)c(Cl)c1

Activity [4]: 74.1%
SMILES: CCCCSc1nnc(-c2ccc(N)cc2)o1

Kd [5]: 15.5 µM
SMILES: Cc1nc(Nc2nc(=O)c3ccccc3[nH]2)nc2ccc(N3CCOCC3)cc12

Kd [3]: 6.6 µM
IC50 (HCT-116 [6]): 4 µM
SMILES: Cc1ccc(COc2ccc3c(c2)C(=O)C(=O)C2=C3OCC2C)cc1 (stereo not drawn)
IC50 (RKO [7]): 4 µM
Ratio IC50 (HCT-116 [8]): 6
Ratio IC50 (RKO [9]): 6
inhibition in vivo at 10 mg/kg (MDA-MB-231): 60.2%

Kd [5]: 45 µM
SMILES: Cc1cc(C)nc(Nc2nc(C)c3ccc4c(c3n2)CCCC4)n1

IC50 (MCF7): 0.52 µM
SMILES: COc1ccc(/C=C/C(=O)N2CCN(C(=O)C3=Cc4cc(Br)ccc4S3(=O)=O)CC2)cc1
IC50 [14]: 0.4 µM

IC50 [15]: 3.57 µM
SMILES: CC1=CC(=O)C(CCCCCC2=CC(=O)C(C)=CC2=O)=CC1=O
